This is an account of results in patent US20220178900A1, “BIORELEVANT COMPOSITION” (BIORELEVANT.COM LTD., priority 2019, published 2022).

Common to all, as to type: physicochemical
The nature of data set [1]: Dissolution in fasted state gastric media (control experiment). To be noted: for drug dose dissolved: after 2 hours of dissolution, fasted state gastric media. Here is the method: (§1) Three biorelevant fed state gastric media at pH 6, pH 5 and pH 3 using the composition in Table 5 were produced. The media at these three pHs were characterised by measuring pH, buffer capacity, particle size (Z-average and polydispersity using Nanosizer) and surface tension (Kruss surface tension K6). The media were stable at time zero and physically stable after 24 hours. Similarly, the key physicochemical properties were unchanged after 24 hours. The dissolution of exemestane (4 tablet×25 mg tablets) in the media was carried out using USP 2 Dissolution Apparatus at 75 rpm (n=6 vessels). Samples of the three biorelevant media were taken from the dissolution vessels and filtered through a 0.45 micrometer nylon filter with prefilter at 5 mins, 10 mins, 15 mins, 20 mins, 25 mins, 30 mins, 45 mins, 60 mins, 90 mins and 120 mins and analysed for exemestane content by HPLC. […] Within 30 minutes more than 80% of the drug was dissolved across the three media.
The dissolution of Sturgeron (15 mg cinnarizine immediate release tablets) was tested in a fasted gastric media (control experiment) and compared with fed gastric media at pH 6, pH 5 and pH 3 using the same dissolution set up as described previously. The dissolution profile of this drug product in the fasted gastric media indicates this basic drug cinnarizine dissolves rapidly in the fasted stomach. […]
The dissolution of danazol (100 mg) hard gelatine capsules was carried out in fasted state gastric media (control) and compared with biorelevant fed state gastric media at pH 6, pH 4.5 and pH 3 as described using the set up and method in the Case Study 1. […] Case Study 6—Examining Physicochemical Properties of FEDGAS Dissolution Media Stored for 72 Hrs at Room Temperature with Dissolution of Megesterol Acetate Capsules FEDGAS media at pH 6, pH 4.5 and pH 3 were prepared by adding the appropriate amount of water in a suitable container, adding the corresponding buffer concentrate and adding the appropriate amount of readily water dispersible biorelevant precursor concentrate and mixing with a magnetic stirrer until homogeneous. […]

Data set [2] is described as follows: Dissolution in biorelevant fed state gastric media (FEDGAS), USP 2 Dissolution Apparatus at 75 rpm, HPLC. To be noted: for dissolution in fed state gastric media compared with fasted state gastric media: fed state gastric media across pH 6 to pH 3; for pH dependence of dissolution profiles in fed state gastric media: fed state media pH 6, pH 5, pH 3. How it is done: In the case studies from 1 to 4, FEDGAS media at pH 6, pH 5 and pH 3 were prepared by adding the appropriate amount of purified water in a suitable container, adding the corresponding buffer concentrate and adding the appropriate amount of biorelevant precursor concentrate and mixing with a magnetic stirrer until homogeneous.
as §1

Experiment in data set [3]: as above
To be noted: within 60 minutes; fed state gastric media at pH 6, pH 4.5 and pH 3.

Data set [4] in a line: FEDGAS dissolution media stored for 72 hrs at room temperature. The note with it: 160 mg capsules in 900 mL; FEDGAS pH 6, pH 4.5, pH 3; room temperature storage. Here is the method:
The dissolution of danazol (100 mg) hard gelatine capsules was carried out in fasted state gastric media (control) and compared with biorelevant fed state gastric media at pH 6, pH 4.5 and pH 3 as described using the set up and method in the Case Study 1. Referring to FIG. 6, the dissolution in fasted gastric media is negligible even after 2 hours of dissolution. Less than 0.2% of the drug dose is dissolved even after 2 hours of dissolution. […] Dissolution reaches about 55% of the dosage form within 60 minutes in fed state gastric media at pH 6, pH4.5 and pH 3 respectively. Case Study 6—Examining Physicochemical Properties of FEDGAS Dissolution Media Stored for 72 Hrs at Room Temperature with Dissolution of Megesterol Acetate Capsules FEDGAS media at pH 6, pH 4.5 and pH 3 were prepared by adding the appropriate amount of water in a suitable container, adding the corresponding buffer concentrate and adding the appropriate amount of readily water dispersible biorelevant precursor concentrate and mixing with a magnetic stirrer until homogeneous. The three media were stored at room temperature for up to 72 hours. […] The pH, buffer capacity, surface tension and particle size (Z-average) of the FEDGAS pH 6 and FEDGAS pH 3 were measured at t=0 and at t=72 hours. […]

As to `C(=C\c1ccccc1)/CN1CCN(C(c2ccccc2)c2ccccc2)CC1` [cinnarizine], the drug dissolved in data set [1] (within 30 minutes, fasted gastric media) is approximately 90%. In addition, in data set [2], the “dissolution in fed state gastric media compared with fasted state gastric media” value is “slower drug dissolution in all fed state gastric media” and the “pH dependence of dissolution profiles in fed state gastric media” value is listed as “faster at lower pH”.

Take `C#C[C@]1(O)CC[C@H]2[C@@H]3CCC4=Cc5oncc5C[C@]4(C)[C@H]3CC[C@@]21C` [danazol]: the drug dose dissolved result in data set [1] is on record as “Less than 0.2%”. For the same compound, the “dissolution in fed state gastric media compared with fasted state gastric media” value in data set [2] is on record as “considerably more rapidly”. The “Dissolution, % of the dosage form” value in data set [3] is reported as “about 55%”.

As for `C=C1C[C@@H]2[C@H](CC[C@]3(C)C(=O)CC[C@@H]23)[C@@]2(C)C=CC(=O)C=C12` [exemestane], the “pH dependence of dissolution profiles in fed state gastric media” value in data set [2] is recorded as “not sensitive to different pHs”. Also, the drug dissolved result in data set [2] (within 30 minutes, across the three fed state media pH 6, pH 5 and pH 3, 4 x 25 mg tablets) is “more than 80%”.

With `Cc1cccc(Nc2ccccc2C(=O)O)c1C` [mefenamic acid], in data set [1], the drug dose dissolved entry is “Less than 0.1%”. The “dissolution in fed state gastric media compared with fasted state gastric media” value in data set [2] was “considerably more rapidly”. Also, the “Dissolution, % of the dosage form” value was approximately 10% in data set [2] (within 30 minutes, fed state gastric media pH 3); approximately 25% in data set [2] (within 30 minutes, fed state gastric media pH 5); “about 45%” in data set [2] (within 30 minutes, fed state gastric media pH 6).

As for `CC(=O)O[C@]1(C(C)=O)CC[C@H]2[C@@H]3C=C(C)C4=CC(=O)CC[C@]4(C)[C@H]3CC[C@@]21C` [megesterol acetate], the “dissolution profiles in media stored t=0, 24, 48, 72 hours” value in data set [4] is “identical”.
